18 compounds from PubChem BioAssay (NCI) can be followed below.

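The compound was tested at five concentrations on cells cultured in 96-well plates, with a 48-hour exposure period. GI50 = concentration required for 50% inhibition of growth. The concentration for full growth arrest is given as TGI.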

Holding throughout (assay): growth of human tumour cells (NCI), 48 h
Test [1] deals with SF-268 CNS.
Test [2] relates to OVCAR-5 ovarian.
The subject of test [3] is EKVX NSCLC.
In test [4] the test system is U251 CNS.
Test [5] relates to A549 NSCLC.
In test [6] the test system is ACHN renal.
For test [7], the system named is SNB-75 CNS.
Test [8] concerns OVCAR-3 ovarian.
Test [9] has as its system K-562 leukemia.
Test [10] has as its system RPMI-8226 leukemia.
The subject of test [11] is LOX IMVI melanoma.
Test [12] deals with UO-31 renal.
Test [13] concerns KM12 colon.
The subject of test [14] is A498 renal.
Test [15] has as its system MOLT-4 leukemia.
Test [16] relates to UACC-257 melanoma.

For the compound `CCN(N=O)C1C2(CCCC2)NC(=O)C12CCCC2` (centres undefined), the TGI in test [1], in [2], in test [3], in test [4], in [5] and in test [6] was more than 100 µM each time. For the same compound, the TGI in [7], in test [8], in test [9], in [10], in test [11] and in test [12] was more than 100 µM throughout. Besides, the TGI in test [13], in test [14], in test [15] and in test [16] was more than 100 µM throughout.
For `Cc1c(-c2coc(-c3ccc([N+](=O)[O-])cc3)n2)c(=O)n(-c2ccccc2)n1C`, the TGI in test [1], in [2], in test [3], in [4], in [5] and in test [6] was more than 100 µM each time. The TGI in test [7], in test [8], in test [10], in test [11], in test [12] and in test [13] was more than 100 µM throughout. Also, the TGI in [14], in test [15] and in test [16] was more than 100 µM in each case.
Consider `COC(=O)C(=O)C(C(=O)OC)C(=O)C(=O)Nc1cc(Cl)c(C)cc1S(=O)(=O)O` (centres undefined), for which the TGI in test [1], in test [2], in [3], in test [4], in test [5] and in test [6] was more than 100 µM each time. The TGI in [7], in test [8], in test [9], in test [11], in test [12] and in test [13] was more than 100 µM in each case. Besides, the TGI in [14], in [15] and in test [16] was more than 100 µM each time.
As for `COc1cc2ccnc(C#N)c2cc1OCc1ccccc1`, the TGI in test [1], in test [2], in test [3], in test [4], in test [5] and in test [6] was more than 100 µM throughout. Also, the TGI in test [7] was 66.3 µM; in test [8], more than 100 µM; in [9] it was more than 100 µM; in [10], more than 100 µM; in test [12], more than 100 µM; in [13], more than 100 µM. Besides, the TGI in test [14], in test [15] and in test [16] was more than 100 µM each time.
For `O=C(O)C12C3CCC(C3)C1(C(=O)O)C1CCC2C1` (centres undefined), the TGI in test [1], in [2], in [3], in test [5], in test [6] and in test [7] was more than 100 µM each time. In addition, the TGI is more than 100 µM in [8]; more than 100 µM in test [9]; 48.4 µM in [10]; 58.1 µM in test [11]; more than 100 µM in test [12]; more than 100 µM in test [13]. Moreover, the TGI in test [14], in test [15] and in test [16] was more than 100 µM each time.
For the compound `O=C(c1ccccc1)n1cc(/C=C/[N+](=O)[O-])c2ccccc21`, the TGI is 52.3 µM in test [1]; more than 100 µM in [2]; more than 100 µM in test [3]; 33.3 µM in [4]; more than 100 µM in test [5]; more than 100 µM in test [6]. The TGI in [7] was 82.1 µM; in test [8] it was more than 100 µM; in test [9], 47.7 µM; in test [10], 39.9 µM; in test [11], 29.8 µM; in [12], 66.1 µM. In addition, the TGI is 32.5 µM in test [13], more than 100 µM in [14], 40.3 µM in test [15] and 47.3 µM in [16].
As for `CN(C)CC1(Cc2ccccc2)CC/C(=C\c2ccccc2)C1=O` (centres undefined), the TGI in test [1], in [2], in test [4], in test [5], in [6] and in [7] was more than 100 µM in each case. Also, the TGI was more than 100 µM in test [8]; more than 100 µM in test [9]; 55.7 µM in [10]; 74.9 µM in test [11]; more than 100 µM in test [12]; more than 100 µM in [13]. The TGI in test [14] is more than 100 µM; in test [15], 67.5 µM; in [16], more than 100 µM.
Consider `O=C1CCC(=O)c2ccccc2N1`, for which the TGI in test [1], in [2], in [3], in test [4], in [5] and in test [6] was more than 100 µM in each case. Moreover, the TGI in test [7], in test [8], in [9], in [10], in [11] and in test [12] was more than 100 µM in each case. Further, the TGI in [13], in test [14], in test [15] and in test [16] was more than 100 µM each time.
In the case of `c1cc2c(cc1C1OCC3C(c4ccc5c(c4)OCO5)OCC13)OCO2` (centres undefined), the TGI in test [1], in test [2], in test [3], in test [4], in [5] and in test [6] was more than 100 µM each time. The TGI in test [7], in test [8], in [9], in [11], in [12] and in [13] was more than 100 µM throughout. Besides, the TGI in test [14], in test [15] and in [16] was more than 100 µM throughout.
Turning to `Cc1ccc(S(=O)(=O)c2ccc(C)cc2[N+](=O)[O-])c([N+](=O)[O-])c1`, the TGI in test [1], in test [2], in test [3], in [4], in test [5] and in [6] was more than 100 µM throughout. Besides, the TGI in test [7], in test [8], in test [9], in test [10], in test [11] and in test [12] was more than 100 µM each time. In test [13], this compound showed a TGI of more than 100 µM.
For `CCOC(=O)/C(C1=NCCN1C)=C(\O)c1ccccc1`, the TGI in test [1], in test [2], in test [3], in test [4], in test [5] and in test [6] was more than 100 µM in each case. The TGI in test [8], in test [9], in test [10], in test [11], in test [12] and in test [13] was more than 100 µM throughout. Further, the TGI in test [15] and in [16] was more than 100 µM in each case.
For the compound `N#Cc1ccc(C2OCC3CC=CCC3CO2)cc1` (centres undefined), the TGI in test [1], in test [2], in test [3], in test [4], in [5] and in [6] was more than 100 µM each time. The TGI in [7], in [8], in test [9], in test [10], in test [11] and in test [12] was more than 100 µM throughout. For the same compound, the TGI in test [13], in [15] and in test [16] was more than 100 µM each time.
For the compound `N#CCCC(C#N)(C#N)CCC#N`, the TGI in test [1], in test [3], in [4], in [5], in test [6] and in test [8] was more than 100 µM throughout. Besides, the TGI in [9], in test [10], in test [11], in test [12], in [13] and in test [15] was more than 100 µM throughout. In test [16], this compound displayed a TGI of more than 100 µM.
As to `O=c1cccccc1[O-].O=c1cccccc1[O-].O=c1cccccc1[O-].[Nd+3]`, the TGI was more than 100 µM in [2]; more than 100 µM in [3]; more than 100 µM in test [4]; more than 100 µM in test [5]; more than 100 µM in test [6]; 38.2 µM in test [8]. The TGI in test [9], in test [10], in test [11], in test [12], in [13] and in [14] was more than 100 µM in each case. Besides, the TGI in test [15] and in test [16] was more than 100 µM throughout. Also, the figures for the GI50 in test [4] and in test [14] were 38.7 µM and 81.4 µM, respectively.
Regarding `CC1=C2CC[C@@]3(C)C(=CCC3O)C2(C)CCC1=O` (some centres undefined), the TGI in test [1], in test [2], in test [3], in test [4], in test [5] and in test [6] was more than 100 µM in each case. Moreover, the TGI in [7], in [8], in [10], in test [11], in [12] and in [13] was more than 100 µM in each case. Further, the TGI in test [14], in [15] and in [16] was more than 100 µM each time.
Regarding `c1ccc2cc(C3NCCc4[nH]cnc43)ccc2c1` (centres undefined), the TGI in test [1], in [2], in test [4], in [5], in [6] and in test [7] was more than 100 µM each time. For the same compound, the TGI is more than 100 µM in test [8]; more than 100 µM in [9]; more than 100 µM in test [10]; more than 100 µM in test [11]; more than 100 µM in [12]; 56.2 µM in test [13]. Also, the figures for the TGI in test [14], in [15] and in test [16] were 88.5 µM, 57.9 µM and 70.9 µM, respectively.
For `C#CN1C(=O)c2c(c(-c3ccccc3)c(-c3ccc(Oc4ccc(-c5c(-c6ccccc6)c6c(c(-c7ccccc7)c5-c5ccccc5)C(=O)N(C#C)C6=O)cc4)cc3)c(-c3ccccc3)c2-c2ccccc2)C1=O`, the TGI in test [1], in test [2], in [3], in [4], in test [5] and in test [6] was more than 100 µM in each case. Also, the TGI in test [7], in test [8], in test [9], in [10], in [11] and in [12] was more than 100 µM in each case. Also, the TGI in test [13], in [15] and in test [16] was more than 100 µM in each case.
In the case of `COc1cc(C2C(C(=O)NCc3ccccc3)=C(C)NC(C)=C2C(=O)NCc2ccccc2)ccc1O`, the TGI in test [1] was more than 100 µM; in test [2], more than 100 µM; in test [3], more than 100 µM; in test [4], 83.2 µM; in test [5] it was more than 100 µM; in [6], more than 100 µM. For the same compound, the TGI is more than 100 µM in test [7]; more than 100 µM in test [8]; more than 100 µM in test [9]; 73.6 µM in test [10]; more than 100 µM in [11]; more than 100 µM in test [12]. The values for the TGI in [14], in test [15] and in [16] were more than 100 µM, 55.8 µM and more than 100 µM, respectively.
